Results from PMC5667506, “Potent and selective inhibition of SH3 domains with dirhodium metalloinhibitors” (Chemical Science, 2015).
Rh2(OAc)3 = dirhodium(II) triacetate, bound to the side-chain carboxylate

What was measured:
Abl SH3 domain = biological target: T1, Abl SH3 domain (Homo sapiens, UniProt P00519); assay: ITC binding to Abl SH3 domain
T1 construct: The abl SH3 domain was amplified by PCR using Phusion DNA polymerase; GST (N, cleaved yes); made in house; host or cells: E. coli BL21 (DE3)
T1 sequence (P00519 60-121): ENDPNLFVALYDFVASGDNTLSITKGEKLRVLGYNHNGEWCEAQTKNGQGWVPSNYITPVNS
Protocol: (§1) All chemical reagents were purchased from Sigma-Aldrich and were used without further purification.
(§2) Peptide synthesis. All peptides were synthesized manually or with an AAPPTEC APEX 396 Automated Multipeptide Synthesizer using standard solid-phase Fmoc protocols.1,2 Peptides were prepared as C-terminal amides using Rink amide MBHA resin (AAPPTEC) and were acetylated at the N-terminus prior to cleavage from the resin. Peptides and metallopeptides were purified by reverse-phase HPLC.
(§3) HPLC separation. Reverse-phase HPLC was performed on a Shimadzu CBM-20A instrument with Phenomenex Jupiter 4μ Proteo 90A (250 × 15 mm preparative) and Phenomenex Jupiter 4μ Proteo 90A (250 × 4.6 mm analytical) columns. The columns were eluted with a gradient of acetonitrile in water (10-90%) (flow rates of 8 mL/min and 1 mL/min for preparative and analytical columns, respectively). Trifluoroacetic acid (0.1%) was added to all eluents.
(§4) FPLC separation. Analytical FPLC was performed on an ÄKTA instrument with Superdex Peptide PE 7.5/300 column. The column was equilibrated with buffer (150 mM NaCl, 50 mM Tris, pH 7.0) at flow rate of 0.2 mL/min.
(§5) ITC analysis. ITC experiments were carried out on a VP-ITC instrument (MicroCal) at 25 °C. Titrations of 275 μM peptide into 18 μM SH3 domain proteins were used for all titrations, except for the titration of S2ERh into Lyn SH3 domain, where the lower concentrations of 69 µM S2ERh peptide and 4 µM Lyn SH3 were used to attain a c-value for the titration within the accepted limts for ITC experiments ([…]).3
(§6) Heats of dilutions were measured independently for each experiment by titrating 275 μM peptide into buffer (20 mM phosphate buffer, pH 7, 150 mM NaCl, 1 mM EDTA). All experimental data were fitted using a one set of sites binding model in Origin software (MicroCal) except for the data with Hck SH3 domain. With Hck only, the non-peptide specific binding of dirhodium tetraacetate to Hck SH3 domain could not be treated as negligible, despite the very weak interaction (88 µM), due to the larger enthalpy contribution observed for non-specific binding to this SH3 domain, so the titrations of peptide into Hck were fitted using a 2 set of sites binding model where the stoichiometry for the second set of sites was fixed at 2.0. […]
(§7) Mass spectrometry. ESI-MS was performed on a Bruker Daltonics micrOTOF instrument.
(§8) Known compounds and proteins. Several metallopeptides (S2ERh, L3ERh, R5ERh, and 13DRh) were reported previously and were prepared by known protocols;4 alkyne-diazo 3,5 3-azido-7-hydroxycoumarin6 were synthesized following reported procedures; fyn, yes, lck, and src SH3 protein domains were prepared following published procedures.5 Abl, hck, and lyn SH3 domain plasmids were adapted from the previously reported genes;7 the gene templates were obtained from Addgene, ID

Lck SH3 domain = biological target: T2, Lck SH3 domain (Homo sapiens, UniProt P06239); assay: ITC binding to Lck SH3 domain
T2 construct: fyn, yes, lck, and src SH3 protein domains were prepared following published procedures; made in house
T2 sequence (P06239 61-121 limits assumed): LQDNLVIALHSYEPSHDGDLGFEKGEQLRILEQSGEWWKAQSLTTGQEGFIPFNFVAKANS
Protocol: All chemical reagents were purchased from Sigma-Aldrich and were used without further purification. […]
as §5, §6
Known compounds and proteins. […]

Hck SH3 domain = biological target: T3, Hck SH3 domain (Homo sapiens, UniProt P08631); assay: ITC binding to Hck SH3 domain (two-sets-of-sites fit); details: high affinity specific site
T3 construct: The hck SH3 domain was amplified by PCR using Phusion DNA polymerase; GST (N, cleaved yes); made in house; host or cells: E. coli BL21 (DE3)
T3 sequence (P08631 77-139): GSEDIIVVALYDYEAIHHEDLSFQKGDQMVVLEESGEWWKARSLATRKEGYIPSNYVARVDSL
Protocol: as §1, §2
as §3, with “eluents. […]” for “eluents.”
as §5, §6, §7
as §8, with “ID […]” for “ID”
Table S1. Table of the thermodynamic parameters for binding of metallopeptides to SH3 domains, determined by isothermal […]
Protein Peptide Stoichiometry Kd ΔH -TΔS ΔG
(nM) (kcal mol-1) (kcal mol-1) (kcal mol-1)
* The binding isotherms for metallopeptide interactions with Hck were fitted using a two -sets-of-sites model with the stoichiometry for the second set of sites fixed to 2.0. The second set of binding sites was used to account for the weak, but not negligable, binding of the peptide to another surface of Hck SH3 domain, presumably through non-specific interactions of the dirhodium tetraacetate group. The thermodynamics for the high affinity specific binding site interaction are provided in this

Yes SH3 domain = biological target: T4, Yes SH3 domain (Homo sapiens, UniProt P07947); assay: ITC binding to Yes SH3 domain; details: Yes SH3, ITC
T4 construct: fyn, yes, lck, and src SH3 protein domains were prepared following published procedures; made in house
T4 sequence (P07947 91-152 limits assumed): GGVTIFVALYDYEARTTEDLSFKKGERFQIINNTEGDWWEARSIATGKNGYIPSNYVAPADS
Protocol: as §1, §2, §3, §4, §5, §6, §7, §8

## AcVELARRPLPPLPN-NH2 (Ac-VE(Rh2(OAc)3)LARRPLPPLPN-NH2; also: metal complex: Glu2 carboxylate bound to dirhodium(II) triacetate) [S2E^Rh, rhodium(II) metallopeptide made from S2E peptide (Ac…-NH2) and Rh2(tfa)(OAc)3]
Abl SH3 domain; 25 °C
  Kd: 5750 nM
Lck SH3 domain; 25 °C
  Kd: 481 nM

## AcVELARRPLPPLPN-NH2 (Ac-VELARRPLPPLPN-NH2; also: Glu2 side-chain carboxylate bound to Rh2(OAc)3) [S2E^Rh, rhodium(II) metallopeptide made from S2E peptide (Ac…-NH2) and Rh2(tfa)(OAc)3]
Hck SH3 domain; 25 °C
  Kd: 26 nM
Yes SH3 domain; 25 °C, read-out: SH3 Kd
  Kd: 610 nM

## AcVELARRPLPPLPN-NH2 [S2E^Rh]
Hck SH3 domain; 25 °C
  -TΔS: 6.9 kcal/mol
  ΔG: -10.4 kcal/mol
  ΔH: -17.2 kcal/mol
Hck SH3 domain
  Stoichiometry: 0.95
Yes SH3 domain
  Stoichiometry: 0.79
Yes SH3 domain; 25 °C
  -TΔS: 9.1 kcal/mol
  ΔG: -8.5 kcal/mol
  ΔH: -17.6 kcal/mol
Abl SH3 domain
  Stoichiometry: 1.5
Abl SH3 domain; 25 °C
  -TΔS: 10.6 kcal/mol
  ΔG: -7.1 kcal/mol
  ΔH: -17.8 kcal/mol
Lck SH3 domain
  Stoichiometry: 1.1
Lck SH3 domain; 25 °C
  -TΔS: 2.6 kcal/mol
  ΔG: -8.6 kcal/mol
  ΔH: -11.2 kcal/mol
